The record followed here is ChEMBL document CHEMBL1140417, “Total and semisynthesis and in vitro studies of both enantiomers of 20-fluorocamptothecin” (Bioorg Med Chem Lett, 2005).

In the test the target is T1, DNA topoisomerase 1 (Homo sapiens) (UniProt P11387).
T1 sequence (whole entry): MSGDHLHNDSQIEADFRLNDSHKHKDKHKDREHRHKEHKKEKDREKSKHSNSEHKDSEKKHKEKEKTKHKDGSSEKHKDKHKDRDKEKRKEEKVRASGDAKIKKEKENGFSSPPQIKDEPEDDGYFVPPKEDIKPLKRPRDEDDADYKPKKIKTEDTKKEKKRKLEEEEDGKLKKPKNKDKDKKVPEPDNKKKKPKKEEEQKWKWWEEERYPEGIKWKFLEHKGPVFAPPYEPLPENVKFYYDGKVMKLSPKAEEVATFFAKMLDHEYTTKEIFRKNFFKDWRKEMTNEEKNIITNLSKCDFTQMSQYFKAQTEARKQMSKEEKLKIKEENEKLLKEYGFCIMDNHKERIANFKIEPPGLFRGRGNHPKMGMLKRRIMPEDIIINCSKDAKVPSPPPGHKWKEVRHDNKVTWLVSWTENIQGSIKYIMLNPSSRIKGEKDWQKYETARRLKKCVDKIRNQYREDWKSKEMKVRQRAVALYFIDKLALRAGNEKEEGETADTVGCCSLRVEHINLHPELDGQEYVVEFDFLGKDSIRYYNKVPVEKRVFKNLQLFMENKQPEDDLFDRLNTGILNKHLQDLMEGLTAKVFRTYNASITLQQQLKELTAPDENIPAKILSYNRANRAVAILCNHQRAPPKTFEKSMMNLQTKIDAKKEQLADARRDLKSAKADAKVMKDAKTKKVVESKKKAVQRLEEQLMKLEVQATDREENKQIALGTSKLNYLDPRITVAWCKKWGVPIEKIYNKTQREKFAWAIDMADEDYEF
The test is described as follows: Inhibition of topoisomerase-1 at 100 uM.

Active and inactive are the calls of the source. The rule behind the calls is not given here.

In the case of `CC[C@@]1(F)C(=O)OCc2c1cc1n(c2=O)Cc2cc3ccccc3nc2-1`, the result was Active.

As for `CC[C@]1(F)C(=O)OCc2c1cc1n(c2=O)Cc2c-1nc1ccc(O)cc1c2[Si](C)(C)C(C)(C)C`, the result was inactive. As for `CC[C@]1(F)C(=O)OCc2c1cc1n(c2=O)Cc2cc3cc(F)ccc3nc2-1`, the entry is “inactive”; as for `CC[C@]1(F)C(=O)OCc2c1cc1n(c2=O)Cc2cc3ccccc3nc2-1`, “inactive”. Consider `CC[C@]1(F)C(=O)OCc2c1cc1n(c2=O)Cc2cc3c4c(ccc3nc2-1)OCO4`, for which the result was inactive. As for `CC[C@]1(F)C(=O)OCc2c1cc1n(c2=O)Cc2cc3cc4c(cc3nc2-1)OCO4`, the entry is “inactive”.
